Measurements published in patent US11214803B2, “Modulators of YAP1 expression” (Ionis Pharmaceuticals, Inc., priority 2019, dated 2022).
pIC50: −log10 of the molar value. Strand notation (5' to 3'): a small letter for the sugar, then the base; units joined by * are phosphorothioate-linked, units joined directly phosphodiester-linked; [ ] holds rarer units or linkages, { } end groups; capitals alone tell only the bases. k = constrained ethyl (cEt); [5mC] = 5-methylcytosine; d = 2'-deoxy (DNA)

Test system: Yap1 mRNA
Assay: Dose-dependent inhibition of human Yap1 in A-431 cells (Example 8, 10,000 cells per well, RTS4814)
Assay type: cell-based
Settings: free uptake, approximately 48 hours, RTS4814; for Yap1 mRNA, % UTC: A-431 cells, 10,000 cells per well; for pIC50: A-431 cells, linear regression on log/linear plot
How it was run: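 A-431 cells (10,000/well) dosed with modified oligonucleotides by free uptake; Yap1 mRNA measured ~48 h later with primer-probe set RTS4814, normalized to total RNA (RIBOGREEN). Values are % of untreated control; IC50 from linear regression on log/linear plot.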

Row | Substance | Yap1 mRNA, % UTC (31.3 nM) | Yap1 mRNA, % UTC (125.0 nM) | Yap1 mRNA, % UTC (500.0 nM) | Yap1 mRNA, % UTC (2000.00 nM) | pIC50
1 | 1074753 (kT*kA*k[5mC]*dA*dT*dT*dA*dG*dG*dA*dA*d[5mC]*dA*kA*kG*kG; antisense) [compound 1074753] | 42 % UTC | 10 % UTC | 6 % UTC | 4 % UTC | > 7.70
2 | 1075712 (kG*kA*k[5mC]*dG*d[5mC]*dG*dA*dA*dA*dT*dA*d[5mC]*dT*kT*kA*k[5mC]; antisense) [compound 1075712] | 69 % UTC | 38 % UTC | 13 % UTC | 7 % UTC | 7.00
3 | 1074726 (antisense kG*kG*kT*dA*dT*dA*dA*d[5mC]*dT*dG*dG*dG*d[5mC]*kA*kA*kA) [compound 1074726] | 26 % UTC | 8 % UTC | 4 % UTC | 3 % UTC | > 7.70
4 | 1074794 (k[5mC]*kA*kA*dA*dT*d[5mC]*dA*dA*dT*dG*dT*dG*d[5mC]*kT*k[5mC]*k[5mC]; antisense) [compound 1074794] | 56 % UTC | 23 % UTC | 10 % UTC | 6 % UTC | > 7.70
5 | 1075744 (kT*kT*k[5mC]*dG*dG*dG*dT*dT*dA*dG*d[5mC]*dA*dG*kA*k[5mC]*kT; antisense) [compound 1075744] | 55 % UTC | 22 % UTC | 9 % UTC | 7 % UTC | > 7.70
6 | 1076291 (kG*kA*kT*dT*dA*dA*dT*dG*dG*dT*dG*dG*d[5mC]*kA*kT*kT; antisense) [compound 1076291] | 75 % UTC | 26 % UTC | 8 % UTC | 5 % UTC | 7.00
7 | 1076323 (k[5mC]*kA*kA*dT*dT*dT*dA*d[5mC]*dA*dA*dG*dT*dG*kA*kG*k[5mC]; antisense) [compound 1076323] | 41 % UTC | 35 % UTC | 13 % UTC | 5 % UTC | > 7.70
8 | 1076256 (kT*kT*kA*dT*dT*dT*dA*dG*dG*d[5mC]*d[5mC]*d[5mC]*d[5mC]*kA*kT*kA; antisense) [compound 1076256] | 68 % UTC | 33 % UTC | 11 % UTC | 6 % UTC | 7.00
9 | 1074595 (DNA kT*kA*kG*dA*dA*dG*dT*dA*dG*dG*dA*dG*d[5mC]*kA*kA*kG; antisense) [compound 1074595] | 67 % UTC | 21 % UTC | 8 % UTC | 4 % UTC | 7.40
10 | 1075243 (k[5mC]*kT*kT*dA*dG*dT*dA*dA*dG*dA*dA*dT*dT*kG*kT*k[5mC]; antisense) [compound 1075243] | 50 % UTC | 18 % UTC | 7 % UTC | 5 % UTC | > 7.70
11 | 1075138 (kA*kA*kT*dA*dA*dT*dA*dG*dA*dT*dA*d[5mC]*dT*kG*k[5mC]*k[5mC]; antisense) [compound 1075138] | 66 % UTC | 27 % UTC | 8 % UTC | 5 % UTC | 7.30
12 | 1075111 (kT*kA*kG*dG*dA*dA*dT*dA*dT*dG*dG*dG*dT*kA*kG*kT; antisense) [compound 1075111] | 42 % UTC | 11 % UTC | 6 % UTC | 5 % UTC | > 7.70
13 | 1074629 (DNA kG*kA*kG*dA*dT*dT*dT*dT*dA*dT*dG*d[5mC]*d[5mC]*kT*kG*kT; antisense) [compound 1074629] | 21 % UTC | 5 % UTC | 3 % UTC | 3 % UTC | > 7.70
14 | 1075146 (kG*kT*kA*dT*dT*dA*dA*dG*dG*dG*dA*dT*dT*kT*kT*k[5mC]; antisense) [compound 1075146] | 67 % UTC | 38 % UTC | 16 % UTC | 8 % UTC | 7.00
15 | 1074597 (DNA kA*kG*kT*dA*dT*dT*d[5mC]*dT*dA*dT*d[5mC]*d[5mC]*dA*kG*kG*kG; antisense) [compound 1074597] | 35 % UTC | 15 % UTC | 8 % UTC | 7 % UTC | > 7.70
16 | 1076000 (k[5mC]*k[5mC]*kT*dA*dA*dT*dA*dT*dG*dA*d[5mC]*dT*d[5mC]*k[5mC]*kT*kT; antisense) [compound 1076000] | 71 % UTC | 31 % UTC | 10 % UTC | 5 % UTC | 7.00
17 | 1074563 (DNA kT*kG*kA*dA*dT*dT*d[5mC]*d[5mC]*dA*dA*dT*d[5mC]*dG*kA*kG*kA; antisense) [compound 1074563] | 80 % UTC | 31 % UTC | 7 % UTC | 5 % UTC | 7.00
18 | 1075813 (kA*k[5mC]*kT*dA*dA*dT*dA*dT*dG*d[5mC]*dA*dA*d[5mC]*kT*k[5mC]*kT; antisense) [compound 1075813] | 57 % UTC | 31 % UTC | 11 % UTC | 5 % UTC | 7.40
19 | 1074535 (kG*kT*kA*dA*dT*dA*dG*d[5mC]*dT*d[5mC]*dT*dT*dT*k[5mC]*kT*kA; antisense) [compound 1074535] | 57 % UTC | 21 % UTC | 7 % UTC | 5 % UTC | > 7.70
20 | 1075242 (k[5mC]*kA*kG*dG*dG*dA*dT*dA*dA*dT*dT*dA*d[5mC]*kT*kA*kA; antisense) [compound 1075242] | 71 % UTC | 39 % UTC | 18 % UTC | 12 % UTC | 7.00
21 | 1075939 (antisense k[5mC]*kT*kT*dG*dA*dA*dT*dA*dT*dA*dT*dG*dG*kG*kT*kT) [compound 1075939] | 46 % UTC | 19 % UTC | 10 % UTC | 8 % UTC | > 7.70
22 | 1076458 (k[5mC]*kT*kT*dA*dA*dT*dT*dA*dG*d[5mC]*d[5mC]*dT*d[5mC]*kA*kG*kT; antisense) [compound 1076458] | 88 % UTC | 52 % UTC | 23 % UTC | 10 % UTC | 6.70
23 | 1074627 (DNA k[5mC]*k[5mC]*kT*dG*dT*dT*dA*dT*dG*dA*dA*d[5mC]*d[5mC]*k[5mC]*kT*kT; antisense) [compound 1074627] | 17 % UTC | 5 % UTC | 3 % UTC | 3 % UTC | > 7.70
24 | 1075498 (k[5mC]*kA*kT*dT*dA*dT*dA*dT*dA*dA*dT*dG*d[5mC]*kA*kG*kG; antisense) [compound 1075498] | 82 % UTC | 40 % UTC | 21 % UTC | 16 % UTC | 7.00
25 | 1076295 (kG*kT*kA*dT*dA*dT*dT*dA*dG*dT*dG*d[5mC]*d[5mC]*k[5mC]*k[5mC]*k[5mC]; antisense) [compound 1076295] | 55 % UTC | 17 % UTC | 5 % UTC | 3 % UTC | > 7.70
